Laboratory results from ChEMBL document CHEMBL1201862, “PubChem BioAssay data set” (2004).
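Results reflect a 48-hour exposure of cells in 96-well plates to compound at five concentrations. GI50 = concentration required for 50% inhibition of growth.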 The source made the active and inactive calls. Rule as the data show it: active = GI50 up to about 1.1 µM and inactive = higher.

Experiments:
Test in all cases: NCI tumour cell line growth inhibition, 48 h
CCRF-CEM = test system: CCRF-CEM
K562 = test system: K562
HT-29 = test system: HT-29
Malme-3M = test system: Malme-3M
KM12 = test system: KM12
SN12C = test system: SN12C
SK-MEL-2 = test system: SK-MEL-2
PC-3 = test system: PC-3
OVCAR-4 = test system: OVCAR-4
MDA-MB-231 = test system: MDA-MB-231
NCI-H522 = test system: NCI-H522
MOLT-4 = test system: MOLT-4
LOX IMVI = test system: LOX IMVI
DU-145 = test system: DU-145
OVCAR-5 = test system: OVCAR-5
HCT-15 = test system: HCT-15
RPMI-8226 = test system: RPMI-8226
SNB-75 = test system: SNB-75
U-251 = test system: U-251
SK-OV-3 = test system: SK-OV-3

COc1ccc(NC(C)=O)cc1C1CCC(=O)N1 (stereo not given)
GI50 (CCRF-CEM): > 100 µM (inactive)
GI50 (K562): > 100 µM (inactive)
GI50 (HT-29): > 100 µM (inactive)
GI50 (Malme-3M): > 100 µM (inactive)
GI50 (KM12): > 100 µM (inactive)
GI50 (SN12C): > 100 µM (inactive)
GI50 (SK-MEL-2): > 100 µM (inactive)
GI50 (PC-3): > 100 µM (inactive)
GI50 (OVCAR-4): > 100 µM (inactive)
GI50 (MDA-MB-231): > 100 µM (inactive)
GI50 (NCI-H522): > 100 µM (inactive)
GI50 (MOLT-4): > 100 µM (inactive)
GI50 (LOX IMVI): > 100 µM (inactive)
GI50 (DU-145): > 100 µM (inactive)
GI50 (OVCAR-5): > 100 µM (inactive)
GI50 (HCT-15): > 100 µM
GI50 (RPMI-8226): > 100 µM (inactive)
GI50 (SNB-75): > 100 µM (inactive)
GI50 (U-251): > 100 µM (inactive)
GI50 (SK-OV-3): > 100 µM (inactive)

CC1(C)N=C(/C=N/O)C(C)(C)N1O
GI50 (CCRF-CEM): > 100 µM (inactive)
GI50 (K562): > 100 µM (inactive)
GI50 (HT-29): > 100 µM (inactive)
GI50 (Malme-3M): > 100 µM (inactive)
GI50 (KM12): > 100 µM (inactive)
GI50 (SN12C): > 100 µM (inactive)
GI50 (SK-MEL-2): > 100 µM (inactive)
GI50 (PC-3): > 100 µM (inactive)
GI50 (OVCAR-4): > 100 µM (inactive)
GI50 (MDA-MB-231): > 100 µM (inactive)
GI50 (NCI-H522): > 100 µM (inactive)
GI50 (MOLT-4): > 100 µM (inactive)
GI50 (LOX IMVI): > 100 µM (inactive)
GI50 (DU-145): > 100 µM (inactive)
GI50 (OVCAR-5): > 100 µM (inactive)
GI50 (HCT-15): > 100 µM
GI50 (RPMI-8226): > 100 µM (inactive)
GI50 (SNB-75): > 100 µM (inactive)
GI50 (U-251): > 100 µM (inactive)
GI50 (SK-OV-3): > 100 µM (inactive)

NC1CC(=O)c2c(Cl)sc(Cl)c21 (stereo not given)
GI50 (CCRF-CEM): 0.885 µM (active)
GI50 (K562): 2.03 µM (inactive)
GI50 (HT-29): 1.72 µM (inactive)
GI50 (Malme-3M): 2.22 µM (inactive)
GI50 (KM12): 3.06 µM (inactive)
GI50 (SN12C): 2.05 µM (inactive)
GI50 (SK-MEL-2): 12.4 µM (inactive)
GI50 (PC-3): 6.21 µM (inactive)
GI50 (OVCAR-4): 6.44 µM (inactive)
GI50 (MDA-MB-231): 2.19 µM (inactive)
GI50 (NCI-H522): 1.48 µM (inactive)
GI50 (MOLT-4): 2.18 µM (inactive)
GI50 (LOX IMVI): 1.51 µM (inactive)
GI50 (DU-145): 5.55 µM (inactive)
GI50 (OVCAR-5): 19.3 µM (inactive)
GI50 (HCT-15): 1.63 µM
GI50 (RPMI-8226): 2.37 µM (inactive)
GI50 (SNB-75): 14.1 µM (inactive)
GI50 (U-251): 3.77 µM (inactive)
GI50 (SK-OV-3): 14.4 µM (inactive)

O=Cc1ccc(-c2ccc(-c3ccc(C=O)s3)o2)s1
GI50 (CCRF-CEM): > 43.6 µM (inactive)
GI50 (K562): 28.2 µM (inactive)
GI50 (HT-29): > 96.2 µM (inactive)
GI50 (Malme-3M): > 100 µM (inactive)
GI50 (KM12): > 100 µM (inactive)
GI50 (SN12C): 97.9 µM (inactive)
GI50 (SK-MEL-2): > 90.6 µM (inactive)
GI50 (PC-3): > 100 µM (inactive)
GI50 (OVCAR-4): 2.79 µM (inactive)
GI50 (MDA-MB-231): > 100 µM (inactive)
GI50 (NCI-H522): 15 µM (inactive)
GI50 (MOLT-4): > 75.7 µM (inactive)
GI50 (LOX IMVI): > 100 µM (inactive)
GI50 (DU-145): > 100 µM (inactive)
GI50 (OVCAR-5): 2.14 µM (inactive)
GI50 (HCT-15): 61.5 µM
GI50 (RPMI-8226): > 100 µM (inactive)
GI50 (SNB-75): 29.7 µM (inactive)
GI50 (U-251): 1.34 µM (inactive)
GI50 (SK-OV-3): > 97.3 µM (inactive)

O=C1c2cc([N+](=O)[O-])cc3cc([N+](=O)[O-])cc(c23)C(=O)N1CCCNCCNCCCN1C(=O)c2cc([N+](=O)[O-])cc3cc([N+](=O)[O-])cc(c23)C1=O
GI50 (CCRF-CEM): < 0.015 µM (active)
GI50 (K562): < 0.0167 µM (active)
GI50 (HT-29): 0.0201 µM (active)
GI50 (Malme-3M): 0.223 µM (active)
GI50 (KM12): 0.0582 µM (active)
GI50 (SN12C): 0.0366 µM (active)
GI50 (SK-MEL-2): 0.124 µM (active)
GI50 (PC-3): 0.376 µM (active)
GI50 (OVCAR-4): 0.178 µM (active)
GI50 (MDA-MB-231): 0.414 µM (active)
GI50 (NCI-H522): 0.0551 µM (active)
GI50 (MOLT-4): < 0.01 µM (active)
GI50 (LOX IMVI): 0.0142 µM (active)
GI50 (DU-145): 0.453 µM (active)
GI50 (OVCAR-5): 0.268 µM (active)
GI50 (HCT-15): 0.117 µM
GI50 (RPMI-8226): < 0.0114 µM (active)
GI50 (SNB-75): 0.308 µM (active)
GI50 (U-251): 0.0395 µM (active)
GI50 (SK-OV-3): 1.79 µM (inactive)

O=C1/C(=C/c2ccc(O)cc2)NC(=S)N1CN1CCCCC1
GI50 (CCRF-CEM): 23.8 µM (inactive)
GI50 (K562): 72.6 µM (inactive)
GI50 (HT-29): 43 µM (inactive)
GI50 (Malme-3M): > 100 µM (inactive)
GI50 (KM12): > 100 µM (inactive)
GI50 (SN12C): 80 µM (inactive)
GI50 (SK-MEL-2): > 100 µM (inactive)
GI50 (PC-3): 53.2 µM (inactive)
GI50 (OVCAR-4): 53.3 µM (inactive)
GI50 (MDA-MB-231): > 100 µM (inactive)
GI50 (NCI-H522): 55.3 µM (inactive)
GI50 (MOLT-4): 62.7 µM (inactive)
GI50 (LOX IMVI): 40.1 µM (inactive)
GI50 (DU-145): 57.1 µM (inactive)
GI50 (OVCAR-5): > 100 µM (inactive)
GI50 (HCT-15): 31.8 µM
GI50 (RPMI-8226): 28.6 µM (inactive)
GI50 (SNB-75): > 100 µM (inactive)
GI50 (U-251): 49.8 µM (inactive)
GI50 (SK-OV-3): > 100 µM (inactive)

CCCCCCCCCCCC[S+](C)C
GI50 (CCRF-CEM): 2.04 µM (inactive)
GI50 (K562): 3.48 µM (inactive)
GI50 (HT-29): 3.41 µM (inactive)
GI50 (Malme-3M): 8.38 µM (inactive)
GI50 (KM12): 3.36 µM (inactive)
GI50 (SN12C): 3.88 µM (inactive)
GI50 (SK-MEL-2): 5.02 µM (inactive)
GI50 (PC-3): 1.58 µM (inactive)
GI50 (OVCAR-4): 6.07 µM (inactive)
GI50 (MDA-MB-231): 0.0124 µM (active)
GI50 (NCI-H522): 3.7 µM (inactive)
GI50 (MOLT-4): 4.94 µM (inactive)
GI50 (LOX IMVI): 2.86 µM (inactive)
GI50 (DU-145): 1.61 µM (inactive)
GI50 (OVCAR-5): 8.43 µM (inactive)
GI50 (HCT-15): 18.5 µM
GI50 (RPMI-8226): 3.41 µM (inactive)
GI50 (SNB-75): 5.68 µM (inactive)
GI50 (U-251): 5.25 µM (inactive)
GI50 (SK-OV-3): 8.49 µM (inactive)

CC(Nc1cccc(Cl)c1)c1ccncc1 (stereo not given)
GI50 (CCRF-CEM): > 100 µM (inactive)
GI50 (K562): 23.1 µM (inactive)
GI50 (HT-29): > 100 µM (inactive)
GI50 (Malme-3M): > 100 µM (inactive)
GI50 (KM12): > 100 µM (inactive)
GI50 (SN12C): > 100 µM (inactive)
GI50 (SK-MEL-2): > 100 µM (inactive)
GI50 (PC-3): 30.5 µM (inactive)
GI50 (OVCAR-4): > 100 µM (inactive)
GI50 (MDA-MB-231): > 100 µM (inactive)
GI50 (NCI-H522): 83.6 µM (inactive)
GI50 (MOLT-4): 31 µM (inactive)
GI50 (LOX IMVI): > 100 µM (inactive)
GI50 (DU-145): 94.4 µM (inactive)
GI50 (OVCAR-5): 51.5 µM (inactive)
GI50 (HCT-15): > 100 µM
GI50 (RPMI-8226): 75.2 µM (inactive)
GI50 (SNB-75): > 100 µM (inactive)
GI50 (U-251): > 100 µM (inactive)
GI50 (SK-OV-3): 15.8 µM (inactive)

C/C1=C\CC[C@@]2(C)O[C@@H]2[C@H]2OC(=O)C(C)C2C[C@H]1O (stereo not given in full)
GI50 (CCRF-CEM): > 100 µM (inactive)
GI50 (K562): > 100 µM (inactive)
GI50 (HT-29): > 100 µM (inactive)
GI50 (Malme-3M): > 100 µM (inactive)
GI50 (KM12): > 100 µM (inactive)
GI50 (SN12C): > 100 µM (inactive)
GI50 (SK-MEL-2): > 100 µM (inactive)
GI50 (PC-3): > 100 µM (inactive)
GI50 (OVCAR-4): > 100 µM (inactive)
GI50 (MDA-MB-231): > 100 µM (inactive)
GI50 (NCI-H522): > 100 µM (inactive)
GI50 (MOLT-4): > 100 µM (inactive)
GI50 (LOX IMVI): > 100 µM (inactive)
GI50 (DU-145): > 100 µM (inactive)
GI50 (OVCAR-5): > 100 µM (inactive)
GI50 (HCT-15): > 100 µM
GI50 (RPMI-8226): > 100 µM (inactive)
GI50 (SNB-75): > 100 µM (inactive)
GI50 (U-251): > 100 µM (inactive)
GI50 (SK-OV-3): > 100 µM (inactive)

O=S(=O)(O)c1ccc(/N=N/c2c(O)ccc3ccccc23)cc1
GI50 (CCRF-CEM): > 100 µM (inactive)
GI50 (K562): > 100 µM (inactive)
GI50 (HT-29): > 100 µM (inactive)
GI50 (Malme-3M): 4.58 µM (inactive)
GI50 (KM12): > 100 µM (inactive)
GI50 (SN12C): > 100 µM (inactive)
GI50 (SK-MEL-2): > 100 µM (inactive)
GI50 (PC-3): > 100 µM (inactive)
GI50 (OVCAR-4): > 100 µM (inactive)
GI50 (MDA-MB-231): > 100 µM (inactive)
GI50 (NCI-H522): > 100 µM (inactive)
GI50 (MOLT-4): > 100 µM (inactive)
GI50 (LOX IMVI): > 100 µM (inactive)
GI50 (DU-145): > 100 µM (inactive)
GI50 (OVCAR-5): > 100 µM (inactive)
GI50 (HCT-15): > 100 µM
GI50 (RPMI-8226): > 100 µM (inactive)
GI50 (SNB-75): > 100 µM (inactive)
GI50 (U-251): > 100 µM (inactive)
GI50 (SK-OV-3): > 100 µM (inactive)
